US20210015874A1, “USE OF BIO-TRANSFORMED BEAR BILE POWDER IN PREPARATION OF ANTI-INFLAMMATORY DRUGS” (SHANGHAI KAIBAO PHARMACEUTICAL CO., LTD., priority 2019, published 2021)

System: carrageenan-induced inflammation model
Test: plantar swelling of carrageenan-induced inflammation model in rats
Format: in vivo, SD rats
Settings: intragastric once, 0.007 g/kg
Method: Animal germline: specific pathogen-free (SPF) male SD rats, aged 6-week-old, weighing between 132 g and 199 g when received, and weighing between 152 g and 225 g when drugs are administered to rats, were purchased from Hunan Slake Jingda laboratory Animal Co., Ltd. The laboratory animal production license: SCXK (Xiang) 2016-0002 (valid until Sep. 29, 2021), issued by China Hunan Provincial Science & Technology Department. The laboratory animal quality certificate No.: 43004700060779.
Method for grouping animals: after the quarantine was over, rats that have passed the quarantine inspection were selected for experiments. Groups were randomly assigned on the basis of body weight and divided into 9 groups with 10 rats per group. The 9 groups were as follows: a negative control group, a model group, a group of rats treated with low-dose bio-transformed bear bile powder, a group of rats treated with middle-dose bio-transformed bear bile powder, a group of rats treated with high-dose bio-transformed bear bile powder, a group of rats treated with low-dose natural bear bile powder, a group of rats treated with middle-dose natural bear bile powder, a group of rats treated with high-dose natural bear bile powder, and a positive control group.
Dose and group design for the experiment: a total of 9 groups are contemplated, that is, negative control group (blank control group), a model group, a group of rats treated with low-dose bio-transformed bear bile powder, a group of rats treated with middle-dose bio-transformed bear bile powder, a group of rats treated with high-dose bio-transformed bear bile powder, a group of rats treated with low-dose natural bear bile powder, a group of rats treated with middle-dose natural bear bile powder, a group of rats treated with high-dose natural bear bile powder, and a positive control group (a group of rats treated with indomethacin).
Administration route, administration frequency, and administration period of the test substance and the control: each of them was administered intragastrically, the administration volume was 10 mL/kg, and each group was administered once.
Experimental method: SD male rats that had passed the quarantine inspection were selected for experiments. Groups were divided into 9 groups with 10 male rats per group. The 9 groups were as follows: a negative control group, a model group, a group of rats treated with low-dose bio-transformed bear bile powder, a group of rats treated with middle-dose bio-transformed bear bile powder, a group of rats treated with high-dose bio-transformed bear bile powder, a group of rats treated with low-dose natural bear bile powder, a group of rats treated with middle-dose natural bear bile powder, a group of rats treated with high-dose natural bear bile powder, and a positive control indomethacin group. Before molding, each animal was scored at the ankle joint of the right hind foot, and the volume of the right hind foot was measured with a plantar volume measuring instrument, and it was measured continuously 2 times, wherein the average value obtained from the two measurements was taken as a base volume.
Except for the blank control group, the animals in the remaining groups were injected with 1% by weight of carrageenan suspension at the right hind foot metatarsal palmar fascia, the volume for each rat was 0.1 mL; animals in the blank control group were injected with an equal volume of normal saline; corresponding drugs were administered intragastrically immediately after an injection of carrageenan. The plantar volume of the right hind foot of each group of animals was measured at 1 h, 2 h, 3 h, 4 h, 5 h, and 6 h after injection, and was measured twice consecutively, and the average value obtained from the two measurements was taken as the plantar volume after modeling. The plantar swelling and the plantar swelling inhibition rate were calculated according to the plantar volume measured at different time points after inflammation was induced. […]

COc1ccc2c(c1)c(CC(=O)O)c(C)n2C(=O)c1ccc(Cl)cc1 [Positive control, indomethacin]
Plantar swelling 1 h (1 h after carrageenan): 0.21 ± 0.14 mL | Plantar swelling 2 h (2 h after carrageenan): 0.25 ± 0.16 mL | Plantar swelling 3 h (3 h after carrageenan): 0.29 ± 0.15 mL | Plantar swelling 4 h (4 h after carrageenan): 0.15 ± 0.12 mL | Plantar swelling 5 h (5 h after carrageenan): 0.19 ± 0.09 mL | Plantar swelling 6 h (6 h after carrageenan): 0.17 ± 0.10 mL
